Source: paper PMC5218480 (PLoS ONE, 2017)

System: MV-4-11 cells
Test: Gene expression microarray analysis (Affymetrix PrimeView) and GSEA
Format: cell-based, human
Set-up: RFU PODN (11730768_x_at) / Fold change /veh PODN (11730768_x_at) / RFU LINC00158 (11744669_a_at) / Fold change /veh LINC00158 (11744669_a_at) / RFU DUSP10 (11751237_a_at) / Fold change /veh DUSP10 (11751237_a_at) / RFU ID3 (11757404_x_at) / Fold change /veh ID3 (11757404_x_at) / RFU PLEKHG5 (11737974_s_at) / Fold change /veh PLEKHG5 (11737974_s_at) / RFU LRRC4B (11730491_at) / Fold change /veh LRRC4B (11730491_at) / RFU GIMAP4 (11747438_a_at) / Fold change /veh GIMAP4 (11747438_a_at) / RFU KRT8 (11758183_x_at) / Fold change /veh KRT8 (11758183_x_at) / RFU CNN1 (11734310_a_at) / Fold change /veh CNN1 (11734310_a_at) / RFU VPS37D (11726825_at) / Fold change /veh VPS37D (11726825_at) / RFU C10orf10 (11716522_x_at) / Fold change /veh C10orf10 (11716522_x_at) / RFU KIR2DL2 /// KIR2DL4 /// KIR2DL5A /// KIR2DL5B /// KIR2DS1 /// KIR2DS2 /// KIR2DS3 /// KIR2DS4 /// KIR3DL3 /// KIR3DL3 /// KIR3DS1 (11738374_at) / Fold change /veh KIR2DL2 /// KIR2DL4 /// KIR2DL5A /// KIR2DL5B /// KIR2DS1 /// KIR2DS2 /// KIR2DS3 /// KIR2DS4 /// KIR3DL3 /// KIR3DL3 /// KIR3DS1 (11738374_at) / RFU C1QL1 (11718748_at) / Fold change /veh C1QL1 (11718748_at) / RFU TMPRSS4 (11747572_a_at) / Fold change /veh TMPRSS4 (11747572_a_at) / RFU HAMP (11756126_x_at) / Fold change /veh HAMP (11756126_x_at) / RFU RNFT2 (11725882_a_at) / Fold change /veh RNFT2 (11725882_a_at) / RFU NR4A2 (11747474_a_at) / Fold change /veh NR4A2 (11747474_a_at) / RFU ABCC12 (11746883_a_at) / Fold change /veh ABCC12 (11746883_a_at) / RFU TMEM136 (11760407_x_at) / Fold change /veh TMEM136 (11760407_x_at) / RFU CLDN22 /// WWC2 (11732394_at) / Fold change /veh CLDN22 /// WWC2 (11732394_at) / RFU HLA-DPB1 (11760878_x_at) / Fold change /veh HLA-DPB1 (11760878_x_at) / RFU SPINT1 (11716480_a_at) / Fold change /veh SPINT1 (11716480_a_at) / RFU GAP43 (11754022_s_at) / Fold change /veh GAP43 (11754022_s_at) / RFU A4GNT (11735810_at) / Fold change /veh A4GNT (11735810_at) / RFU PRB3 (11715151_x_at) / Fold change /veh PRB3 (11715151_x_at) / RFU TUBB4B (11761932_at) / Fold change /veh TUBB4B (11761932_at) / RFU CAPN14 (11732068_a_at) / Fold change /veh CAPN14 (11732068_a_at) / RFU TMCC2 (11721928_a_at) / Fold change /veh TMCC2 (11721928_a_at) / RFU IRGQ (11745062_a_at) / Fold change /veh IRGQ (11745062_a_at) / RFU FAM174B (11720279_a_at) / Fold change /veh FAM174B (11720279_a_at) / RFU TMPRSS4 (11748680_a_at) / Fold change /veh TMPRSS4 (11748680_a_at) / RFU FAM212B (11763350_a_at) / Fold change /veh FAM212B (11763350_a_at) / RFU PLEKHG5 (11743358_a_at) / Fold change /veh PLEKHG5 (11743358_a_at) / RFU ZSCAN30 (11745921_a_at) / Fold change /veh ZSCAN30 (11745921_a_at) / RFU CMKLR1 (11741424_a_at) / Fold change /veh CMKLR1 (11741424_a_at) / RFU LOC101060620 /// MAPK8IP1 (11723275_at) / Fold change /veh LOC101060620 /// MAPK8IP1 (11723275_at) / RFU SPTSSB (11747773_x_at) / Fold change /veh SPTSSB (11747773_x_at) / RFU PRSS12 (11739890_at) / Fold change /veh PRSS12 (11739890_at) / RFU BIN1 (11741810_x_at) / Fold change /veh BIN1 (11741810_x_at) / RFU WNT11 (11732464_a_at) / Fold change /veh WNT11 (11732464_a_at) / RFU C10orf10 (11716521_a_at) / Fold change /veh C10orf10 (11716521_a_at) / RFU C5orf56 (11738089_at) / Fold change /veh C5orf56 (11738089_at) / RFU CYB561 (11721691_x_at) / Fold change /veh CYB561 (11721691_x_at) / RFU ANKRD19P (11752326_a_at) / Fold change /veh ANKRD19P (11752326_a_at) / RFU OR2T12 /// OR2T33 /// OR2T8 (11738714_s_at) / Fold change /veh OR2T12 /// OR2T33 /// OR2T8 (11738714_s_at) / RFU VCAN (11748164_a_at) / Fold change /veh VCAN (11748164_a_at) / RFU JSRP1 (11732532_at) / Fold change /veh JSRP1 (11732532_at) / RFU KRTAP10-11 (11738290_x_at) / Fold change /veh KRTAP10-11 (11738290_x_at) / RFU MYO3A (11730013_a_at) / Fold change /veh MYO3A (11730013_a_at) / RFU EBF3 (11725865_a_at) / Fold change /veh EBF3 (11725865_a_at) / RFU CAMK2N1 (11719241_x_at) / Fold change /veh CAMK2N1 (11719241_x_at) / RFU C5orf56 (11738088_a_at) / Fold change /veh C5orf56 (11738088_a_at) / RFU OLFML3 (11715873_a_at) / Fold change /veh OLFML3 (11715873_a_at) / RFU LOC100653217 /// NTM (11731650_a_at) / Fold change /veh LOC100653217 /// NTM (11731650_a_at) / RFU MAPK11 (11762145_a_at) / Fold change /veh MAPK11 (11762145_a_at) / RFU FIZ1 (11724087_x_at) / Fold change /veh FIZ1 (11724087_x_at) / RFU OASL (11726364_x_at) / Fold change /veh OASL (11726364_x_at) / RFU SOX15 (11748057_x_at) / Fold change /veh SOX15 (11748057_x_at) / RFU CD79A (11719716_a_at) / Fold change /veh CD79A (11719716_a_at) / RFU HIST1H1D (11736915_at) / Fold change /veh HIST1H1D (11736915_at) / RFU CASKIN2 (11723855_a_at) / Fold change /veh CASKIN2 (11723855_a_at) / RFU LOC730098 (11760151_x_at) / Fold change /veh LOC730098 (11760151_x_at) / RFU OR4N2 (11742367_at) / Fold change /veh OR4N2 (11742367_at) / RFU PRRT2 (11749266_a_at) / Fold change /veh PRRT2 (11749266_a_at) / RFU SNX32 (11753110_a_at) / Fold change /veh SNX32 (11753110_a_at) / RFU CDHR5 (11726645_a_at) / Fold change /veh CDHR5 (11726645_a_at) / RFU RCAN1 (11760418_a_at) / Fold change /veh RCAN1 (11760418_a_at) / RFU FAM167A (11723789_a_at) / Fold change /veh FAM167A (11723789_a_at) / RFU FAM26E (11764081_at) / Fold change /veh FAM26E (11764081_at) / RFU ISYNA1 (11749810_s_at) / Fold change /veh ISYNA1 (11749810_s_at) / RFU ACY1 (11761880_at) / Fold change /veh ACY1 (11761880_at) / RFU 11764098_at / Fold change /veh 11764098_at / RFU SAMD14 (11745864_x_at) / Fold change /veh SAMD14 (11745864_x_at) / RFU NPB (11741838_a_at) / Fold change /veh NPB (11741838_a_at) / RFU TMPRSS6 (11731388_a_at) / Fold change /veh TMPRSS6 (11731388_a_at) / RFU KRTAP10-2 (11738614_at) / Fold change /veh KRTAP10-2 (11738614_at) / RFU ARHGAP8 /// PRR5-ARHGAP8 (11727945_x_at) / Fold change /veh ARHGAP8 /// PRR5-ARHGAP8 (11727945_x_at) / RFU KRTAP5-7 /// NADSYN1 (11734609_at) / Fold change /veh KRTAP5-7 /// NADSYN1 (11734609_at) / RFU RASL12 (11751679_a_at) / Fold change /veh RASL12 (11751679_a_at) / RFU CDKN2B (11736163_a_at) / Fold change /veh CDKN2B (11736163_a_at) / RFU PRF1 (11729649_at) / Fold change /veh PRF1 (11729649_at) / RFU, ZNF638 /// ZNF638-IT1 / Fold change vs veh, ZNF638 /// ZNF638-IT1 / RFU, PANK3 / Fold change vs veh, PANK3 / RFU, SH3YL1 / Fold change vs veh, SH3YL1 / RFU, ZEB2 / Fold change vs veh, ZEB2 / RFU, NRIP1 / Fold change vs veh, NRIP1 / RFU, PTTG1IP / Fold change vs veh, PTTG1IP / RFU, CAPN2 / Fold change vs veh, CAPN2 / RFU, MED14 / Fold change vs veh, MED14 / RFU, SNORA58 / Fold change vs veh, SNORA58 / RFU, C1orf63 / Fold change vs veh, C1orf63 / RFU, LRRFIP1 / Fold change vs veh, LRRFIP1 / RFU, NDUFAF7 / Fold change vs veh, NDUFAF7 / RFU, SLC12A2 / Fold change vs veh, SLC12A2 / RFU, IBTK / Fold change vs veh, IBTK / RFU, ESF1 / Fold change vs veh, ESF1 / Fold change vs veh, TMEM50B / RFU, TAOK1 / Fold change vs veh, TAOK1 / RFU, ACBD3 / Fold change vs veh, ACBD3 / RFU, TMA16 / Fold change vs veh, TMA16 / RFU, RWDD3 / Fold change vs veh, RWDD3 / RFU, BCAT1 / Fold change vs veh, BCAT1 / RFU, EDEM3 / Fold change vs veh, EDEM3 / RFU, TMEM33 / Fold change vs veh, TMEM33 / RFU, WDR75 / Fold change vs veh, WDR75 / RFU, AHCTF1 / Fold change vs veh, AHCTF1 / RFU, TFRC / Fold change vs veh, TFRC / RFU, ZDHHC17 / Fold change vs veh, ZDHHC17 / RFU, NOM1 / Fold change vs veh, NOM1 / RFU, ARL8B / Fold change vs veh, ARL8B / RFU, ZBTB11 / Fold change vs veh, ZBTB11 / RFU, TAMM41 / Fold change vs veh, TAMM41 / RFU, KIAA1704 /// LOC100996395 / Fold change vs veh, KIAA1704 /// LOC100996395 / RFU, ING1 / Fold change vs veh, ING1 / RFU, TRMT61B / Fold change vs veh, TRMT61B / RFU, FUBP3 / Fold change vs veh, FUBP3 / RFU, TP53 / Fold change vs veh, TP53 / RFU, TNKS2 / Fold change vs veh, TNKS2 / RFU, ZFP14 / Fold change vs veh, ZFP14 / RFU, ACTR2 / Fold change vs veh, ACTR2 / RFU, PPP3R1 / Fold change vs veh, PPP3R1 / RFU, PIK3R1 / Fold change vs veh, PIK3R1 / RFU, HNRNPA1 / Fold change vs veh, HNRNPA1 / RFU, RNF170 / Fold change vs veh, RNF170 / RFU, ZNF28 / Fold change vs veh, ZNF28 / RFU, RNGTT / Fold change vs veh, RNGTT / RFU, OGT / Fold change vs veh, OGT / RFU, BRD1 / Fold change vs veh, BRD1 / RFU, MARS / Fold change vs veh, MARS / RFU, ZNF655 / Fold change vs veh, ZNF655 / RFU, FAHD1 / Fold change vs veh, FAHD1 / RFU, BDP1 / Fold change vs veh, BDP1 / RFU, LRRCC1 / Fold change vs veh, LRRCC1 / RFU, ARID1A / Fold change vs veh, ARID1A / RFU, ZNF146 / Fold change vs veh, ZNF146 / RFU, ZNF330 / Fold change vs veh, ZNF330 / RFU, GPN3 / Fold change vs veh, GPN3 / RFU, C9orf123 / Fold change vs veh, C9orf123 / RFU, N4BP2L2 / Fold change vs veh, N4BP2L2 / RFU, ARFIP1 / Fold change vs veh, ARFIP1 / RFU, FAM179B / Fold change vs veh, FAM179B / RFU, BCL10 / Fold change vs veh, BCL10 / RFU, UHRF1BP1L / Fold change vs veh, UHRF1BP1L / RFU, BET1 / Fold change vs veh, BET1 / RFU, CNOT2 / Fold change vs veh, CNOT2 / RFU, ZNF268 / Fold change vs veh, ZNF268 / Fold change vs veh, ZNF507 / RFU, DGCR2 / Fold change vs veh, DGCR2 / RFU, WDSUB1 / Fold change vs veh, WDSUB1 / Fold change vs veh, HSP90B1 /// MIR3652 / RFU, ADSS / Fold change vs veh, ADSS / RFU, GK / Fold change vs veh, GK / RFU, ZNF148 / Fold change vs veh, ZNF148 / RFU, TAF9 / Fold change vs veh, TAF9 / RFU, SLC1A5 / Fold change vs veh, SLC1A5 / RFU, SLMO2 / Fold change vs veh, SLMO2 / RFU, ABCC4 / Fold change vs veh, ABCC4 / RFU, LOC101060439 /// RAP1B / Fold change vs veh, LOC101060439 /// RAP1B / RFU, RFX7 / Fold change vs veh, RFX7 / RFU, GTPBP10 / Fold change vs veh, GTPBP10 / RFU, CNEP1R1 / Fold change vs veh, CNEP1R1 / RFU, BIVM-ERCC5 /// ERCC5 / Fold change vs veh, BIVM-ERCC5 /// ERCC5 / RFU, ILF3 / Fold change vs veh, ILF3 / RFU 11762660_at / Fold change /veh 11762660_at / RFU VCAN (11757783_s_at) / Fold change /veh VCAN (11757783_s_at) / RFU DDX43 (11728927_at) / Fold change /veh DDX43 (11728927_at) / RFU KRT8 (11758188_x_at) / Fold change /veh KRT8 (11758188_x_at) / RFU NKD1 (11759106_at) / Fold change /veh NKD1 (11759106_at) / RFU SRD5A1 (11742802_a_at) / Fold change /veh SRD5A1 (11742802_a_at) / RFU TPSAB1 /// TPSB2 (11721975_s_at) / Fold change /veh TPSAB1 /// TPSB2 (11721975_s_at) / RFU GSTM3 (11746129_a_at) / Fold change /veh GSTM3 (11746129_a_at) / RFU IL23R (11737362_x_at) / Fold change /veh IL23R (11737362_x_at) / RFU TMEM51 (11727254_a_at) / Fold change /veh TMEM51 (11727254_a_at) / RFU PIWIL2 (11732686_x_at) / Fold change /veh PIWIL2 (11732686_x_at) / RFU ORM1 (11744905_x_at) / Fold change /veh ORM1 (11744905_x_at) / RFU CCDC152 (11743942_at) / Fold change /veh CCDC152 (11743942_at) / RFU ECM1 (11717891_a_at) / Fold change /veh ECM1 (11717891_a_at) / RFU IL23R (11748794_a_at) / Fold change /veh IL23R (11748794_a_at) / RFU TNFAIP8L3 (11732012_x_at) / Fold change /veh TNFAIP8L3 (11732012_x_at) / RFU MBOAT4 (11741988_at) / Fold change /veh MBOAT4 (11741988_at) / RFU 11764193_at / Fold change /veh 11764193_at / RFU TMEM53 (11763286_at) / Fold change /veh TMEM53 (11763286_at) / RFU MAGEB2 (11727129_at) / Fold change /veh MAGEB2 (11727129_at) / RFU TMEM200A (11744735_a_at) / Fold change /veh TMEM200A (11744735_a_at) / RFU CCDC152 (11751479_a_at) / Fold change /veh CCDC152 (11751479_a_at) / RFU FAM211A (11726209_a_at) / Fold change /veh FAM211A (11726209_a_at) / RFU RGS16 (11746705_a_at) / Fold change /veh RGS16 (11746705_a_at) / RFU VCAN (11755009_s_at) / Fold change /veh VCAN (11755009_s_at) / RFU RHOB (11743442_s_at) / Fold change /veh RHOB (11743442_s_at) / RFU RGS16 (11720943_a_at) / Fold change /veh RGS16 (11720943_a_at) / RFU RGS16 (11720944_at) / Fold change /veh RGS16 (11720944_at) / RFU, VPS4B / Fold change vs veh, VPS4B / RFU, CREB1 / Fold change vs veh, CREB1 / RFU, DNAJC13 / Fold change vs veh, DNAJC13 / RFU, GNAQ / Fold change vs veh, GNAQ / RFU, CDK5R1 / Fold change vs veh, CDK5R1 / RFU, ZRANB3 / Fold change vs veh, ZRANB3 / RFU, CUL4A / Fold change vs veh, CUL4A / RFU, CCNY / Fold change vs veh, CCNY / RFU, UFL1 / Fold change vs veh, UFL1 / RFU, COG3 / Fold change vs veh, COG3 / RFU, DIAPH2 / Fold change vs veh, DIAPH2 / RFU, SKA2 / Fold change vs veh, SKA2 / RFU, AFF3 / Fold change vs veh, AFF3 / RFU, LMF1 / Fold change vs veh, LMF1 / RFU, IPO11 / Fold change vs veh, IPO11 / RFU, DFFB / Fold change vs veh, DFFB / RFU, FOXP1 / Fold change vs veh, FOXP1 / RFU, CARD8 / Fold change vs veh, CARD8 / RFU, STRN3 / Fold change vs veh, STRN3 / RFU, ADK / Fold change vs veh, ADK / RFU, RASSF2 / Fold change vs veh, RASSF2 / RFU, WIPF1 / Fold change vs veh, WIPF1 / RFU, LARP1B / Fold change vs veh, LARP1B / RFU, RASA1 / Fold change vs veh, RASA1 / RFU, RB1 / Fold change vs veh, RB1 / RFU, PPFIA1 / Fold change vs veh, PPFIA1 / RFU, MAT2A / Fold change vs veh, MAT2A / RFU, CCT5 / Fold change vs veh, CCT5 / RFU, WDR92 / Fold change vs veh, WDR92 / RFU, CUX1 / Fold change vs veh, CUX1 / RFU, TTC7A / Fold change vs veh, TTC7A / RFU, TMEM135 / Fold change vs veh, TMEM135 / RFU, DEPTOR / Fold change vs veh, DEPTOR / RFU, CPM / Fold change vs veh, CPM / RFU, DNAJB6 / Fold change vs veh, DNAJB6 / RFU, CACNA2D3 / Fold change vs veh, CACNA2D3 / RFU, DTX4 / Fold change vs veh, DTX4 / RFU, TFCP2 / Fold change vs veh, TFCP2 / RFU, GMCL1 /// GMCL1P1 / Fold change vs veh, GMCL1 /// GMCL1P1 / RFU, AEBP2 / Fold change vs veh, AEBP2 / RFU, SNHG1 /// SNORD22 /// SNORD25 /// SNORD26 /// SNORD27 /// SNORD28 /// SNORD29 /// SNORD31 / Fold change vs veh, SNHG1 /// SNORD22 /// SNORD25 /// SNORD26 /// SNORD27 /// SNORD28 /// SNORD29 /// SNORD31 / Fold change (Aza/veh), C12orf56 (ProbeSet 11735607_a_at) / Fold change (ACY-1035/veh), C12orf56 (ProbeSet 11735607_a_at) / Fold change (Aza/veh), FGFR1OP (ProbeSet 11751329_s_at) / Fold change (ACY-1035/veh), FGFR1OP (ProbeSet 11751329_s_at) / Fold change (Aza/veh), VPS36 (ProbeSet 11739960_a_at) / Fold change (ACY-1035/veh), VPS36 (ProbeSet 11739960_a_at) / RFU SYPL1 (11715823_x_at) / Fold change /veh SYPL1 (11715823_x_at) / RFU IGFBP7 (11715501_s_at) / Fold change /veh IGFBP7 (11715501_s_at) / RFU REEP3 (11722064_at) / Fold change /veh REEP3 (11722064_at) / RFU IGLL1 (11728026_x_at) / Fold change /veh IGLL1 (11728026_x_at): dose or concentration left out as unconfirmed
Details: ProbeSet 11755436_x_at; LIST B

Structure (SMILES): Nc1ncn([C@@H]2O[C@H](CO)[C@@H](O)[C@H]2O)c(=O)n1 [azacitidine]
- RFU, ARID1A: 63.57 RFU
